Reference: ChEMBL document CHEMBL1138722, “3-(2-Methoxytetrahydrofuran-2-yl)pyrazoles: a novel class of potent, selective cyclooxygenase-2 (COX-2) inhibitors” (Bioorg Med Chem Lett, 2004)

Experiments:
[1] = molecular target: T1, Prostaglandin G/H synthase 2 (Homo sapiens) (UniProt P35354); settings: Blood, at 1 µM
T1 sequence (whole entry): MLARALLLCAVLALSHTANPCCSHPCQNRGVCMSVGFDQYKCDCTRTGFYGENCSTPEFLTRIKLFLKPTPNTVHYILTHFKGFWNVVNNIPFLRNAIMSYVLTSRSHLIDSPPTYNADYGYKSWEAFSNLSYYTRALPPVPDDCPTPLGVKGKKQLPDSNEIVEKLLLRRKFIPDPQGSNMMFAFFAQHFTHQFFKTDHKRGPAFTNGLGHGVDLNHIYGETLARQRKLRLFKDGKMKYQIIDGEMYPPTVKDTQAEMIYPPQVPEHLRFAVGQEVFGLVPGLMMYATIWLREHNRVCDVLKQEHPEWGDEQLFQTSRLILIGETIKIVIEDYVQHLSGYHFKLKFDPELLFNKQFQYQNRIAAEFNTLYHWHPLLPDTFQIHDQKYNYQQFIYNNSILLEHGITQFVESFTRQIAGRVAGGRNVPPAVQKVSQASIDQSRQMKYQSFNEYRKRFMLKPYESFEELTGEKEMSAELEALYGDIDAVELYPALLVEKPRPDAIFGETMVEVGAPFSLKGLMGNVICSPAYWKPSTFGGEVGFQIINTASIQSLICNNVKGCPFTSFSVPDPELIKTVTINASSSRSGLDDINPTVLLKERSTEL
Description: In vitro inhibition of Prostaglandin G/H synthase 2 in human whole blood at 1 uM

[2] = molecular target: T2, Prostaglandin G/H synthase 2 (Homo sapiens, UniProt P35354); assay: In vitro inhibition of Prostaglandin G/H synthase 2 in human whole blood; assay type: tissue-based
T2 sequence (P35354 whole entry): T1 sequence (whole entry)

[3] = molecular target: T1, Prostaglandin G/H synthase 2 (Homo sapiens); settings: Blood, at 10 µM
Description: In vitro inhibition of Prostaglandin G/H synthase 2 in human whole blood at 10 uM

[4] = molecular target: T3, Prostaglandin G/H synthase 1 (Homo sapiens, UniProt P23219); assay: In vitro inhibition of Prostaglandin G/H synthase 1 in human whole blood at 100 uM; assay type: tissue-based
T3 sequence (P23219 whole entry): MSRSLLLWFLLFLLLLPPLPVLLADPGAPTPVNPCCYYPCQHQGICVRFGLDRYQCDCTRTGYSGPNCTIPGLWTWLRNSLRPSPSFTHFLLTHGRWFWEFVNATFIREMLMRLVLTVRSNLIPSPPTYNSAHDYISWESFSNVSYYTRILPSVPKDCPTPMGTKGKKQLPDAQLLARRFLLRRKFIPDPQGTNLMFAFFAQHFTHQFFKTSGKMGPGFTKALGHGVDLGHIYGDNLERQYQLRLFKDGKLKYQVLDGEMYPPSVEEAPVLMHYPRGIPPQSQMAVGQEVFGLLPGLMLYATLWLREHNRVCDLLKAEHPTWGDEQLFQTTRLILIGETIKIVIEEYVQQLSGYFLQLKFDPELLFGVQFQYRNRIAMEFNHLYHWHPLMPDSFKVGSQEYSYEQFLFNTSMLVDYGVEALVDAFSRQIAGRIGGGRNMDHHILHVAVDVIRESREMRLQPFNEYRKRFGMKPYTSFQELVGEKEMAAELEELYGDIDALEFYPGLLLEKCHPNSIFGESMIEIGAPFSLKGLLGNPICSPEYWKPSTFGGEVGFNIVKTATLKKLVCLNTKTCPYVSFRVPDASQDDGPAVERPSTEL

[5] = molecular target: T3, Prostaglandin G/H synthase 1; assay: In vitro inhibition of Prostaglandin G/H synthase 1 in human whole blood; assay type: tissue-based

inhibition [1] | IC50 [2] | inhibition [3] | inhibition [4] | IC50 [5] | SMILES
55% | 1200 nM | 90% | 55% | > 100000 nM | COC1(c2cc(-c3ccc(S(C)(=O)=O)cc3)n(-c3ccc(C)cc3)n2)CCCO1 (stereo not drawn)
40% | – | 75% | 25% | – | COC1(c2cc(-c3ccc(S(C)(=O)=O)cc3)n(-c3ccc(F)cc3)n2)CCCO1 (stereo not drawn)
13% | – | 84% | 72% | – | COC1(c2cc(-c3ccc(S(C)(=O)=O)cc3)n(-c3ccc(Br)cc3)n2)CCCO1 (stereo not drawn)
30% | – | 65% | 20% | – | COC1(c2cc(-c3ccc(S(C)(=O)=O)cc3)n(-c3ccccc3)n2)CCCO1 (stereo not drawn)
30% | – | 25% | 0% | – | COC1(c2cc(-c3ccc(S(C)(=O)=O)cc3)n(-c3ccc(C#N)cc3)n2)CCCO1 (stereo not drawn)
25% | – | 80% | 60% | – | COC1(c2cc(-c3ccc(S(C)(=O)=O)cc3)n(-c3ccc(Cl)cc3)n2)CCCO1 (stereo not drawn)
25% | – | 70% | 50% | – | COC1(c2cc(-c3ccc(S(C)(=O)=O)cc3)n(-c3ccc(C(F)(F)F)cc3)n2)CCCO1 (stereo not drawn)
